Kd data for 38 compounds are collected here from patent US12054483B2, “Small molecule inhibitors of DYRK/CLK and uses thereof” (Arizona Board of Regents on Behalf of the University of …, priority 2018, dated 2024).

Each structure is given as a SMILES string.

As usually defined, the Kd is a measure of binding affinity in units of concentration.

The target of the experiment is DYRK1A (Homo sapiens, UniProt Q13627). The experiment is described as follows: Affinity testing of compounds with DYRK1A (KD). It counts as binding. Conditions: DYRK1A affinity key classes.
On to `Cc1nc2ccc(-c3ccncc3)nc2n1-c1ccc(CN2CCCC(F)(F)C2)cc1` [Compound 65, 3-(4-((3,3-difluoropiperidin-1-yl)methyl)phenyl)-2-methyl-5-(pyridin-4-yl)-3H-imidazo[4,5-b]pyridine], for which the Kd lay in the range of 101 to 500 nM. As for `Cc1nc2ccc(-c3ccnc(N)c3)nc2n1-c1ccc(N2C[C@@H](C)O[C@@H](C)C2)nc1` [Compound 161, 4-(3-(6-((2S,6R)-2,6-dimethylmorpholino)pyridin-3-yl)-2-methyl-3H-imidazo[4,5-b]pyridin-5-yl)pyridin-2-amine], the figure is 0.5 to 100 nM.

Consider `OC1CCCN(Cc2ccc(-c3cnc4ccc(-c5ccncc5)nn34)cc2)C1` (centres unmarked) [Compound 101, 1-(4-(6-(pyridin-4-yl)imidazo[1,2-b]pyridazin-3-yl)benzyl)piperidin-3-ol], for which the Kd is 101 to 500 nM.

`O=C(O)c1ccc(-n2cnc3c(F)cc(-c4ccncc4)cc32)cc1` [Compound 17, 4-(4-fluoro-6-(pyridin-4-yl)-1H-benzo[d]imidazol-1-yl)benzoic acid] yielded a Kd of 101 to 500 nM.

In turn, `Cc1nc2ccc(-c3ccnc(N)c3)nc2n1-c1cccc(N2CCOCC2)c1` [Compound 157, 4-(2-methyl-3-(3-morpholinophenyl)-3H-imidazo[4,5-b]pyridin-5-yl)pyridin-2-amine] came in with an equilibrium dissociation constant (Kd) of 0.5 to 100 nM. In the case of `COC(=O)c1ccc(-c2cnc3ccc(-c4ccncc4)nn23)cc1` [Compound 72, methyl 4-(6-(pyridin-4-yl)imidazo[1,2-b]pyridazin-3-yl)benzoate], the dissociation constant (Kd) fell in the range of 0.5 to 100 nM. Compound `Cc1nc2ccc(-c3ccncc3)nc2n1-c1ccc(CN2CCOCC2)nc1` [Compound 133, 4-((5-(2-methyl-5-(pyridin-4-yl)-3H-imidazo[4,5-b]pyridin-3-yl)pyridin-2-yl)methyl)morpholine] showed a Kd of 101 to 500 nM.

`Cc1nc2ccc(-c3ccncc3)nc2n1-c1ccc2[nH]cnc2c1` [Compound 32, 3-(1H-benzo[d]imidazol-5-yl)-2-methyl-5-(pyridin-4-yl)-3H-imidazo[4,5-b]pyridine] came in with a Kd of 0.5 to 100 nM.

The compound `c1cc(-c2ccc3ncc(-c4ccc(N5CCCCC5)nc4)n3n2)ccn1` [Compound 74, 3-(6-(piperidin-1-yl)pyridin-3-yl)-6-(pyridin-4-yl)imidazo[1,2-b]pyridazine] yielded a dissociation constant (Kd) of 101 to 500 nM. As for `Cc1cc(-c2ccc3ncc(-c4ccc(N5CCCCC5)nc4)n3n2)ccn1` [Compound 81, 6-(2-methylpyridin-4-yl)-3-(6-(piperidin-1-yl)pyridin-3-yl)imidazo[1,2-b]pyridazine], the dissociation constant Kd lay within 101 to 500 nM.

As to `Cc1nc2ccc(-c3ccnc(N)c3)nc2n1-c1ccc(N2CCS(=O)(=O)CC2)c(F)c1` [Compound 182, 4-(4-(5-(2-aminopyridin-4-yl)-2-methyl-3H-imidazo[4,5-b]pyridin-3-yl)-2-fluorophenyl)thiomorpholine 1,1-dioxide], the Kd fell in the range of 0.5 to 100 nM. The same measure for `Cc1nc2ccc(-c3ccnc(N)c3)nc2n1-c1ccc(=O)n(C)c1` [Compound 48, 5-(5-(2-aminopyridin-4-yl)-2-methyl-3H-imidazo[4,5-b]pyridin-3-yl)-1-methylpyridin-2(1H)-one]: 0.5 to 100 nM; for `Cc1nc2ccc(-c3ccnc(N)c3)nc2n1-c1ccc(N2CCC3(COC3)C2)c(F)c1` [Compound 169, 4-(3-(3-fluoro-4-(2-oxa-6-azaspiro[3.4]octan-6-yl)phenyl)-2-methyl-3H-imidazo[4,5-b]pyridin-5-yl)pyridin-2-amine]: 0.5 to 100 nM. Turning to `Cc1nc2ccc(-c3ccncc3)nc2n1-c1ccc(CN2CCOCC2)cn1` [Compound 64, 4-((6-(2-methyl-5-(pyridin-4-yl)-3H-imidazo[4,5-b]pyridin-3-yl)pyridin-3-yl)methyl)morpholine], the Kd was 501 to 10000 nM. The same measure for `Cc1cc(-c2ccc3ncc(-c4ccc(CN5CCCCC5)cc4)n3n2)ccn1` [Compound 92, 6-(2-methylpyridin-4-yl)-3-(4-(piperidin-1-ylmethyl)phenyl)imidazo[1,2-b]pyridazine]: 101 to 500 nM; for `Cc1cc(-c2ccc3nc(C)n(-c4ccc(N5CCOCC5)cc4)c3n2)cc(C)n1` [Compound 53, 4-(4-(5-(2,6-dimethylpyridin-4-yl)-2-methyl-3H-imidazo[4,5-b]pyridin-3-yl)phenyl)morpholine]: 501 to 10000 nM; for `COC(=O)c1ccc(-n2cnc3c(F)cc(-c4ccncc4)cc32)cc1` [Compound 16, methyl 4-(4-fluoro-6-(pyridin-4-yl)-1H-benzo[d]imidazol-1-yl)benzoate]: 0.5 to 100 nM. As for `Nc1cc(-c2ccc3ncc(-c4ccc(CN5CCCCC5)cc4)n3n2)ccn1` [Compound 110, 4-(3-(4-(piperidin-1-ylmethyl)phenyl)imidazo[1,2-b]pyridazin-6-yl)pyridin-2-amine], the figure is 0.5 to 100 nM. With `Cc1nc2ccc(-c3ccnc(N)c3)nc2n1-c1cc(F)c(N2CCOCC2)c(F)c1` [Compound 172, 4-(3-(3,5-difluoro-4-morpholinophenyl)-2-methyl-3H-imidazo[4,5-b]pyridin-5-yl)pyridin-2-amine], the Kd is 0.5 to 100 nM. Turning to `Cc1nc2ccc(-c3cc[n+]([O-])cc3)nc2n1-c1ccc2c(c1)OCO2` [Compound 60, 4-(3-(benzo[d][1,3]dioxol-5-yl)-2-methyl-3H-imidazo[4,5-b]pyridin-5-yl)-1λ^4-pyridin-2-ylium-1-olate], the Kd fell in the range of 501 to 10000 nM. The compound `Nc1cc(-c2ccn3ncc(-c4ccc(CN5CCOCC5)s4)c3n2)ccn1` [Compound 114, 4-(3-(5-(morpholinomethyl)thiophen-2-yl)pyrazolo[1,5-a]pyrimidin-5-yl)pyridin-2-amine] came in with a dissociation constant (Kd) of 101 to 500 nM.

Consider `Nc1cc(-c2ccn3ncc(-c4ccc(CN5CCOCC5)cc4)c3n2)ccn1` [Compound 112, 4-(3-(4-(morpholinomethyl)phenyl)pyrazolo[1,5-a]pyrimidin-5-yl)pyridin-2-amine], for which the Kd lay in the range of 501 to 10000 nM. As for `Cc1nc2ccc(-c3ccncc3)nc2n1-c1ccc(C(=O)N2CCOCC2)cc1` [Compound 56, (4-(2-methyl-5-(pyridin-4-yl)-3H-imidazo[4,5-b]pyridin-3-yl)phenyl)(morpholino)methanone], the figure is 101 to 500 nM; as for `Fc1c(-c2ccncc2)ccc2nc(C3CC3)n(-c3ccc4c(c3)OCO4)c12` [Compound 21, 1-(benzo[d][1,3]dioxol-5-yl)-2-cyclopropyl-7-fluoro-6-(pyridin-4-yl)-1H-benzo[d]imidazole], 501 to 10000 nM. As for `Cc1nc2ccc(-c3ccnc(N)c3)nc2n1-c1cnc(N2CCOCC2)c(C2CC2)c1` [Compound 163, 4-(3-(5-cyclopropyl-6-morpholinopyridin-3-yl)-2-methyl-3H-imidazo[4,5-b]pyridin-5-yl)pyridin-2-amine], the figure is 0.5 to 100 nM; as for `CC(=O)N1C[C@@H]2[C@H](C1)[C@H]2n1c(C)nc2ccc(-c3ccnc(N)c3)nc21` [Compound 47, 1-((1R,5S,6s)-6-(5-(2-aminopyridin-4-yl)-2-methyl-3H-imidazo[4,5-b]pyridin-3-yl)-3-azabicyclo[3.1.0]hexan-3-yl)ethan-1-one], 0.5 to 100 nM; as for `Cc1nc2ccc(-c3ccnc(N)c3)nc2n1-c1ccc(N2C[C@@H](C)O[C@@H](C)C2)c(F)c1` [Compound 181, 4-(3-(4-((2S,6R)-2,6-dimethylmorpholino)-3-fluorophenyl)-2-methyl-3H-imidazo[4,5-b]pyridin-5-yl)pyridin-2-amine], 0.5 to 100 nM.

In the case of `FC1(F)CN(Cc2ccc(-c3cnc4ccc(-c5ccncc5)nn34)cc2)C1` [Compound 102, 3-(4-((3,3-difluoroazetidin-1-yl)methyl)phenyl)-6-(pyridin-4-yl)imidazo[1,2-b]pyridazine], the Kd lay within 101 to 500 nM.

As to `Cc1nc2ccc(-c3cc[nH]c(=O)c3)nc2n1-c1ccc(CN2CCOCC2)cc1` [Compound 45, 4-(2-methyl-3-(4-(morpholinomethyl)phenyl)-3H-imidazo[4,5-b]pyridin-5-yl)pyridin-2(1H)-one], the dissociation constant (Kd) fell in the range of 501 to 10000 nM. The same measure for `Cc1nc2ccc(-c3ccncc3)nc2n1-c1ccc(CO)cc1` [Compound 115, (4-(2-methyl-5-(pyridin-4-yl)-3H-imidazo[4,5-b]pyridin-3-yl)phenyl)methanol]: 0.5 to 100 nM; for `Cc1nc2ccc(-c3ccncc3)c(F)c2n1-c1ccc2c(c1)OCO2` [Compound 19, 1-(benzo[d][1,3]dioxol-5-yl)-7-fluoro-2-methyl-6-(pyridin-4-yl)-1H-benzo[d]imidazole]: 0.5 to 100 nM; for `Cc1nc2ccc(-c3ccnc(N)c3)nc2n1-c1ccc(N2CCOCC2)nc1` [Compound 158, 4-(2-methyl-3-(6-morpholinopyridin-3-yl)-3H-imidazo[4,5-b]pyridin-5-yl)pyridin-2-amine]: 0.5 to 100 nM.

`Cc1nc2ccc(-c3ccnc(N)c3)nc2n1-c1ccc(CN2CCCCC2)cc1` [Compound 159, 4-(2-methyl-3-(4-(piperidin-1-ylmethyl)phenyl)-3H-imidazo[4,5-b]pyridin-5-yl)pyridin-2-amine] returned a Kd of 0.5 to 100 nM.

Consider `c1cc(-c2ccc3ncc(-c4ccc(N5CCOCC5)nc4)n3n2)ccn1` [Compound 73, 4-(5-(6-(pyridin-4-yl)imidazo[1,2-b]pyridazin-3-yl)pyridin-2-yl)morpholine], for which the Kd was in the range of 0.5 to 100 nM. As for `Cc1nc2ccc(-c3ccnc(N)c3)nc2n1-c1ccc2c(c1)CCN2C1CCOCC1` [Compound 174, 4-(2-methyl-3-(1-(tetrahydro-2H-pyran-4-yl)indolin-5-yl)-3H-imidazo[4,5-b]pyridin-5-yl)pyridin-2-amine], the figure is 0.5 to 100 nM. As for `O=C(O)c1ccc(-n2cnc3ccc(-c4ccncc4)c(F)c32)cc1` [Compound 6, 4-(7-fluoro-6-(pyridin-4-yl)-1H-benzo[d]imidazol-1-yl)benzoic acid], the figure is 101 to 500 nM.

In turn, `Cc1nc2cnc(-c3ccnc(N)c3)cc2n1-c1cccc(CN2CCOCC2)c1` [Compound 180, 4-(2-methyl-1-(3-(morpholinomethyl)phenyl)-1H-imidazo[4,5-c]pyridin-6-yl)pyridin-2-amine] yielded a Kd of 101 to 500 nM.

Take `Cc1nc2ccc(-c3ccnc(N)c3)nc2n1-c1ccc(N2CCOCC2)cc1` [Compound 148, 4-(2-methyl-3-(4-morpholinophenyl)-3H-imidazo[4,5-b]pyridin-5-yl)pyridin-2-amine]: the Kd fell in the range of 0.5 to 100 nM.
